The compounds below were run on AKT protein phosphorylated on serine 473 (P-AKT-S473) in PC3 human prostate carcinoma cells (assay: pAKT expression in PC3 cells measured by MSD Multi-spot Biomarker Detection (Test B)). Details: PC-3, inhibition of AKT Ser473 phosphorylation, 1 to 2 h incubation, MSD sandwich immunoassay, absolute IC50, mean of two experiments.
Type: cell-based
Method: (§1) The inhibitory activity of the molecules on AKT phosphorylation is measured either by western blotting using the technique described below, or by the MSD Multi-spot Biomarker detection technique from Meso Scale Discovery also described below.
Where appropriate, the activity of the products is translated into approximately IC50, obtained from a dose-response curve of various concentrations tested and representing the dose giving 50% of specific inhibition (absolute IC50). Two independent experiments make it possible to calculate the mean of the IC50s. Study of pAKT expression in PC3 human prostate carcinoma cells measured by the MSD Multi-spot Biomarker Detection technique from Meso Scale Discovery (Test B): This test is based on measuring the expression of the AKT protein phosphorylated on serine 473 (P-AKT-S473), in the PC3 human prostate carcinoma line, by means of the technique based on a sandwich immunoassay using the MSD Multi-spot Biomarker Detection kit from Meso Scale Discovery: phospho-Akt (Ser473) whole cell lysate kit (#K151 CAD) or phospho-Akt (Ser473)/Total Akt whole cell lysate kit (#K151OOD).
The primary antibody specific for P-AKT-5473 (Kit #K151 CAD) is coated onto an electrode in each well of the 96-well plates of the MSD kit: after the addition of a protein lysate to each well, the signal is visualised by adding a secondary detection antibody labelled with an electrochemoluminescent compound. The procedure followed is that described in the kit.
(§2) On day 1, the PC3 cells are seeded into 96-well plates (TPP, #92096) at the concentration of 35 000 cells/well in 200 μl of DMEM medium (DMEM Gibco #11960-044) containing 10% of foetal calf serum (FCS Gibco, #10500-056) and 1% glutamine (L-Glu Gibco #25030-024), and incubated at 37° C., 5% CO2, overnight.
(§3) On day 2, the cells are incubated in the presence or absence of the test products for 1 to 2 h at 37° C. in the presence of 5% of CO2. The molecules, diluted in dimethyl sulphoxide (DMSO Sigma #D2650), are added from a 20-times concentrated stock solution, the final percentage of DMSO being 0.1%. The molecules are tested either at a single concentration of less than or equal to 10 μM, or at increasing concentrations in a range that can extend from less than 1 nM to 10 μM.
After this incubation, the cells are lysed for the preparation of the proteins. For this, after the culture medium has been drawn off, […] of complete Tris Lysis Buffer of the MSD kit containing the protease and phosphatase inhibitor solutions are added to the wells and the cells are lysed for 1 h at 4° C. with shaking At this stage, the plates containing the lysates can be frozen at −20° C. or at −80° C.
The wells of the 96-well plates of the MSD kit are saturated for 1 h at ambient temperature with the blocking solution of the MSD kit. Four washes are carried out with 150 μl of Tris Wash Buffer of the MSD kit. The lysates previously prepared are transferred into the 96-well multi-spot plates of the MSD kit and incubated for 1 h at ambient temperature, with shaking Four washes are carried out with 150 μl of Tris Wash Buffer of the MSD kit. 25 μl of the MSD sulpho-tag detection antibody solution are added to the wells and incubated for 1 h at ambient temperature, with shaking Four washes are carried out with 150 μl of Tris Wash Buffer of the MSD kit. 150 μl of Read Buffer of the MSD kit are added to the wells and the plates are read immediately on the 512400 instrument from Meso Scale Discovery.
The instrument measures a signal for each well. Wells without cells and containing the lysis buffer serve to determine the background noise that will be subtracted from all the measurements (min). The wells containing cells in the absence of product and in the presence of 0.1% DMSO are considered to be the 100% signal (max). The percentage inhibition is calculated for each concentration of test product according to the following formula: (1−((test−min)/(max−min)))×100. […]

| SMILES | IC50 |
| --- | --- |
| O=c1cc(N2CCOCC2)nc(Cc2nc3ccc(Cl)cc3[nH]2)[nH]1 [Example 17, 2-[(6-chloro-1H-benzimidazol-2-yl)methyl]-6-(morpholin-4-yl)pyrimidin-4(3H)-one] | 63 nM |
| Cc1ccc2nc(Cc3nc(N4CCOCC4)cc(=O)[nH]3)oc2c1 [Example 8, 2-[(6-methyl-1,3-benzoxazol-2-yl)methyl]-6-(morpholin-4-yl)pyrimidin-4(3H)one] | 143 nM |
| O=c1cc(N2CCOCC2)nc(Cc2nc3cccc(F)c3o2)[nH]1 [Example 12, 2-[(7-fluoro-1,3-benzoxazol-2-yl)methyl]-6-(morpholin-4-yl)pyrimidin-4(3H)-one] | 88 nM |
| Cn1c(Cc2nc(N3CCOCC3)cc(=O)[nH]2)nc2cccc(Br)c21 [Example 41, 2-[(7-Bromo-1-methyl-1H-benzimidazol-2-yl)methyl]-6-(morpholin-4-yl)pyrimidin-4(3H)-one] | 32 nM |
| O=c1cc(N2CCOCC2)nc(Cc2nc3cc(F)c(Cl)cc3[nH]2)[nH]1 [Example 27, 2-[(5-chloro-6-fluoro-1H-benzimidazol-2-yl)methyl]-6-(morpholin-4-yl)pyrimidin-4(3H)-one] | 256 nM |
| COCCn1c(Cc2nc(N3CCOCC3)cc(=O)[nH]2)nc2cc(F)ccc21 [Example 19, 2-{[5-fluoro-1-(2-methoxyethyl)-1H-benzimidazol-2-yl]methyl}-6-(morpholin-4-yl)pyrimidin-4(3H)-one] | 109 nM |
| O=c1cc(N2CCOCC2)nc(Cc2nc3ccc(F)c(F)c3o2)[nH]1 [Example 22, 2-[(6,7-difluoro-1,3-benzoxazol-2-yl)methyl]-6-(morpholin-4-yl)pyrimidin-4(3H)-one] | 28 nM |
| COc1ccc2nc(Cc3nc(N4CCOCC4)cc(=O)[nH]3)oc2c1 [Example 21, 2-[(6-methoxy-1,3-benzoxazol-2-yl)methyl]-6-(morpholin-4-yl)pyrimidin-4(3H)-one] | 18 nM |
| Cn1c(Cc2nc(N3CCOCC3)cc(=O)[nH]2)nc2cc(Cl)c(Cl)cc21 [Example 38, 2-[(5,6-Dichloro-1-methyl-1H-benzimidazol-2-yl)methyl]-6-(morpholin-4-yl)pyrimidin-4(3H)-one] | 65 nM |
| Cc1ccc2nc(Cc3nc(N4CCOCC4)cc(=O)[nH]3)[nH]c2c1 [Example 24, 2-[(6-methyl-1H-benzimidazol-2-yl)methyl]-6-(morpholin-4 yl)pyrimidin-4(3H)-one] | 140 nM |
| O=c1cc(N2CCOCC2)nc(Cc2nc3cc(F)c(F)cc3o2)[nH]1 [Example 16, 2-[(5,6-difluoro-1,3-benzoxazol-2-yl)methyl]-6-(morpholin-4-yl)pyrimidin-4(3H)-one] | 187 nM |
| COc1ccc2nc(Cc3nc(N4CCOCC4)cc(=O)[nH]3)[nH]c2c1 [Example 4, 2-[(6-methoxy-1H-benzimidazol-2-yl)methyl]-6-(morpholin-4-yl)pyrimidin-4(3H)-one] | 475 nM |
| O=c1cc(N2CCOCC2)nc(Cc2nc3cc(Cl)c(Cl)cc3[nH]2)[nH]1 [Example 23, 2-[(5,6-dichloro-1H-benzimidazol-2-yl)methyl]-6-(morpholin-4-yl)pyrimidin-4(3H)-one] | 193 nM |
| O=c1cc(N2CCOCC2)nc(Cc2nc3cc(F)cc(F)c3[nH]2)[nH]1 [Example 31, 2-[(5,7-difluoro-1H-benzimidazol-2-yl)methyl]-6-(morpholin-4-yl)pyrimidine-4(3H)-one] | 144 nM |
| O=c1cc(N2CCOCC2)nc(Cc2nc3ccccc3n2Cc2ccccc2)[nH]1 [Example 14, 2-[(1-benzyl-1H-benzimidazol-2-yl)methyl]-6-(morpholin-4-yl)pyrimidin-4(3H)-one] | 105 nM |
| O=c1cc(N2CCOCC2)nc(Cc2nc3c(O)cccc3o2)[nH]1 [Example 40, 2-[(4-hydroxy-1,3-benzoxazol-2-yl)methyl]-6-(morpholin-4-yl)pyrimidin-4(3H)-one] | 44 nM |
| O=c1cc(N2CCOCC2)nc(Cc2nc3ccc(C(F)(F)F)cc3[nH]2)[nH]1 [Example 26, 6-(morpholin-4-yl)-2-{[6-(trifluoromethyl)-1H-benzimidazol-2-yl]methyl}pyrimidine-4(3H)-one] | 961 nM |

These compounds were tested on AKT protein phosphorylated on serine 473 in PC3 human prostate carcinoma cells (assay: pAKT expression in PC3 cells measured by western blotting (test A)). Details: PC-3, inhibition of AKT Ser473 phosphorylation, 1 to 2 hours incubation, absolute IC50, mean of two experiments.
Type: cell-based
Method: as §1
Study of pAKT expression in PC3 human prostate carcinoma cells measured by western blotting (test A):
This test is based on measuring the expression of the AKT protein phosphorylated on serine 473. The phosphorylation of AKT (pAKT) is measured by western blotting in the PC3 human prostate carcinoma line (ATCC CRL-1435), using an antibody that specifically recognises pAKT-5473.
as §2, with “6-well” for “96-well”, “#92006)” for “#92096)”, “0.8×10^6” for “35 000”, “1800” for “200”, “(SVF” for “(FCS”
as §3, with “2 hours” for “2 h”, “5%” for “5% of”, “a 10-times” for “a 20-times”
After this incubation, the cells are lysed for the preparation of the proteins. After the culture medium has been drawn off, the cells are rinsed with 1 ml of PBS (DPBS Gibco, #14190-094), recovered by scraping in 200 μl of complete HNTG buffer and transferred into a 96-well plate (Greiner #651201), and lysed for 1 h on ice. The HNTG buffer is composed of the following mixture: 50 mM hepes, 150 mM NaCl, 1% triton, 10% glycerol, with extemporaneous addition of one Mini Protease Inhibitor Cocktail tablet (Roche 1836153) and of one Phosphatase Inhibitor Cocktail tablet (Roche 104906837001) per 10 ml of buffer.
The lysate is centrifuged for 10 min at 6000 rpm. 155 μl of supernatant are recovered. 150 μl are incubated for denaturation for 5 min at 95° C. in the presence of 4× NuPAGE LDS Sample Buffer diluted 4-fold (InVitrogen ref NP0007) and of 10× NuPAGE Sample Reducing Agent diluted 10-fold (InVitrogen ref NP0009). These samples are then frozen at −20° C. 5 μl are assayed by the microBCA technique according to the technical bulletin of the MicroBCA Protein Assay Kit (Pierce #23235).
For protein separation, 20 μg of proteins are loaded on to a NU-PAGE 4-12% Bis Tris Gel 12 well (InVitrogen ref NP0322BOX) and the migration is carried out for 1 h 30 in 20×NU-PAGE MOPS SDS Running Buffer diluted 20-fold (InVitrogen ref NP0001), at 150 volts.
The gel is then transferred onto an Invitrolon PVDF membrane (Invitrogen #LC2007) permeabilised beforehand for a few seconds in ethanol (Ethanol Fischer Scientific #E/0600DF/15).
The transfer is carried out in a Biorad tank at 30 volts overnight or at 60 volts for 3 hours, in the presence of 20× NUPAGE Transfer Buffer diluted 20-fold (InVitrogen ref NP0006).
The membrane is then saturated in saturating solution composed of TBS (10× Tris Buffered Saline, Sigma #T5912, diluted 10-fold), 0.1% Tween 20 (Sigma #P5927) and 3% BSA (Bovine Serum Albumin Fraction V, Sigma #A4503) for 6 h after overnight transfer or else for 1 h after transfer for a period of 3 h.
The primary antibodies are diluted to 1/1000th for the anti-phospho AKT-Ser473 antibody (193H2, rabbit monoclonal, cat#4058 from Cell Signaling Technology) Abcam), in saturating solution composed of […], 0.1% Tween 20 and 3% BSA, and then shaken overnight at 4° C.
Two rinses for 5 min in washing solution composed of TBS and 0.1% Tween 20 are carried out before hybridisation of the secondary antibodies. […]

| SMILES | IC50 |
| --- | --- |
| O=c1cc(N2CCOCC2)nc(Cc2nc3cc(F)c(F)cc3[nH]2)[nH]1 [Example 5, 2-[(5,6-difluoro-1H-benzimidazol-2-yl)methyl]-6-(morpholin-4-yl)pyrimidin-4(3H)-one] | 1010 nM |
| O=c1cc(N2CCOCC2)nc(Cc2nc3ccccc3o2)[nH]1 [Example 2, 2-(1,3-benzoxazol-2-ylmethyl)-6-(morpholin-4-yl)pyrimidin-4(3H)-one] | 388 nM |
